ChEMBL document CHEMBL4033645, “Design, synthesis, and docking studies of quinazoline analogues bearing aryl semicarbazone scaffolds as potent EGFR inhibitors” (Bioorg Med Chem, 2017)

Key:
[1] = system: HepG2; assay: Cytotoxicity against human HepG2 cells assessed as decrease in cell viability after 72 hrs by MTT assay; assay type: functional, cell-based
[2] = system: PC-3; assay: Cytotoxicity against human PC3 cells assessed as decrease in cell viability after 72 hrs by MTT assay; assay type: functional, cell-based
[3] = system: A549; assay: Cytotoxicity against human A549 cells assessed as decrease in cell viability after 72 hrs by MTT assay; assay type: functional, cell-based; details: A549, 72 h
[4] = system: MCF7; assay: Cytotoxicity against human MCF7 cells assessed as decrease in cell viability after 72 hrs by MTT assay; assay type: functional, cell-based
[5] = system: A549; assay: Induction of apoptosis in human A549 cells assessed as necrotic cells at 0.5 uM after 48 hrs by Annexin V-FITC/propidium iodide-staining based by flow cytometric analysis (reference value: 0.64%); assay type: functional
[6] = system: A549; assay: Induction of apoptosis in human A549 cells assessed as viable cells at 0.5 uM after 48 hrs by Annexin V-FITC/propidium iodide-staining based by flow cytometric analysis (reference value: 93.27%); assay type: functional; details: A549, 48 h, read-out: Activity
[7] = molecular target: Epidermal growth factor receptor (Homo sapiens, UniProt P00533); assay: Inhibition of EGFR (unknown origin) using FAM-labeled peptide as substrate measured after 10 mins by mobility shift assay
[8] = system: MCF7; assay: Potency index, ratio of afatinib IC50 to compound IC50 for human MCF7 cells; assay type: functional
[9] = system: A549; assay: Induction of apoptosis in human A549 cells assessed as early apoptotic cells at 0.5 uM after 48 hrs by Annexin V-FITC/propidium iodide-staining based by flow cytometric analysis (reference value: 3.40%); assay type: functional
[10] = system: A549; assay: Induction of apoptosis in human A549 cells assessed as late apoptotic cells at 0.5 uM after 48 hrs by Annexin V-FITC/propidium iodide-staining based by flow cytometric analysis (reference value: 2.69%); assay type: functional
[11] = system: A549; assay: Induction of apoptosis in human A549 cells assessed as necrotic cells at 1 uM after 48 hrs by Annexin V-FITC/propidium iodide-staining based by flow cytometric analysis (reference value: 0.64%); assay type: functional
[12] = system: A549; assay: Induction of apoptosis in human A549 cells after 48 hrs by Annexin V-FITC/propidium iodide-staining based by flow cytometric analysis; assay type: functional, cell-based
[13] = system: A549; assay: Induction of apoptosis in human A549 cells assessed as late apoptotic cells at 1 uM after 48 hrs by Annexin V-FITC/propidium iodide-staining based by flow cytometric analysis (reference value: 2.69%); assay type: functional
[14] = system: A549; assay: Induction of apoptosis in human A549 cells assessed as early apoptotic cells at 1 uM after 48 hrs by Annexin V-FITC/propidium iodide-staining based by flow cytometric analysis (reference value: 3.40%); assay type: functional
[15] = system: HepG2; assay: Potency index, ratio of afatinib IC50 to compound IC50 for human HepG2 cells; assay type: functional
[16] = system: A549; assay: Induction of apoptosis in human A549 cells assessed as viable cells at 1 uM after 48 hrs by Annexin V-FITC/propidium iodide-staining based by flow cytometric analysis (reference value: 93.27%); assay type: functional; details: A549, 48 h, read-out: Activity
[17] = Homo sapiens, HepG2, 72 h, read-out: IC50
[18] = Homo sapiens, PC-3, 72 h, read-out: IC50
[19] = Homo sapiens, MCF7, 72 h, read-out: IC50

Chain of Epidermal growth factor receptor (P00533 whole entry): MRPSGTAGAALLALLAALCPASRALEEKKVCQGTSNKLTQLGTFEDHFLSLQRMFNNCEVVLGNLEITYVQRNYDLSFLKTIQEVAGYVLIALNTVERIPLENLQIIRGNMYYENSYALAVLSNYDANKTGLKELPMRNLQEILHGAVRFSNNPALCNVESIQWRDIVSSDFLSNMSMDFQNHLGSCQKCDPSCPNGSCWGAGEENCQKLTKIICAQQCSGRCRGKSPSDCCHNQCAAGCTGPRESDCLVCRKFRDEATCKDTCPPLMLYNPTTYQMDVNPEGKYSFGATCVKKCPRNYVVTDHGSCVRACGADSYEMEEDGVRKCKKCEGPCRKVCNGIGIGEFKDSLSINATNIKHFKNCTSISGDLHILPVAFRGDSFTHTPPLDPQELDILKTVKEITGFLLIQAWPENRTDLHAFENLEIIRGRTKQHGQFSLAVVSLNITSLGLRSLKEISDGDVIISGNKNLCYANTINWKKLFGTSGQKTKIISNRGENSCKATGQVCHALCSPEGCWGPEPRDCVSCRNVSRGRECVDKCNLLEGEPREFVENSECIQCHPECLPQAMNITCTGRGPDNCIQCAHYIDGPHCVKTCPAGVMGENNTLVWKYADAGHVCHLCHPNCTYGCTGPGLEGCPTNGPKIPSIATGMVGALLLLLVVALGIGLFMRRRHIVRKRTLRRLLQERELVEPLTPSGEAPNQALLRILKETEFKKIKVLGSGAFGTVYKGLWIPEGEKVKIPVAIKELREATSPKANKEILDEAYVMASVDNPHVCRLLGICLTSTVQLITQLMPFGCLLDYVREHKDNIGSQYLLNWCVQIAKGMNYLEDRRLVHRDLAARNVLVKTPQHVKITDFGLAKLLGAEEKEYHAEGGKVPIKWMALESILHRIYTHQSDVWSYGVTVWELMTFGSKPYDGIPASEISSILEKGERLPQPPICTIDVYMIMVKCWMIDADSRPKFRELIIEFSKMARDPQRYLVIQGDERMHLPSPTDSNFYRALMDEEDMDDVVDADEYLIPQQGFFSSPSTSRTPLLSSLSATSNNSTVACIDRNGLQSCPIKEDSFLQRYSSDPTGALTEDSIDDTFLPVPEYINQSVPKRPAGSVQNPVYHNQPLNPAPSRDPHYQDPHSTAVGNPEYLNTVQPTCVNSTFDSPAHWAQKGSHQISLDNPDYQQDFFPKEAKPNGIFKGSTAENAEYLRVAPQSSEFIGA

N#Cc1ccc(/C=N/NC(=O)Nc2cc3c(Nc4ccc(F)c(Cl)c4)ncnc3cc2O[C@H]2CCOC2)cc1
IC50 [1, 17]: 26.4 µM
IC50 [2, 18]: 28.1 µM
IC50 [3]: 29.1 µM

O=C(N/N=C/c1ccc(O)cc1O)Nc1cc2c(Nc3ccc(F)c(Cl)c3)ncnc2cc1O[C@H]1CCOC1
IC50 [1, 17]: 4.53 µM
IC50 [2, 18]: 7.54 µM
IC50 [3]: 9.36 µM
IC50 [4, 19]: 5.35 µM

COc1ccc(/C=N/NC(=O)Nc2cc3c(Nc4ccc(F)c(Cl)c4)ncnc3cc2O[C@H]2CCOC2)c(OC)c1OC
IC50 [1, 17]: 29.3 µM
IC50 [2, 18]: 25.6 µM
IC50 [3]: 25.2 µM
IC50 [4, 19]: 33.8 µM

CC(C)(C)c1cc(/C=N/NC(=O)Nc2cc3c(Nc4ccc(F)c(Cl)c4)ncnc3cc2O[C@H]2CCOC2)cc(C(C)(C)C)c1O
IC50 [1, 17]: 12.5 µM
IC50 [2, 18]: 13.1 µM
IC50 [3]: 18.9 µM
IC50 [4, 19]: 14.5 µM

COc1cc2ncnc(Nc3ccc(F)c(Cl)c3)c2cc1NC(=O)N/N=C/c1ccc(C#N)cc1
IC50 [1, 17]: 34.1 µM
IC50 [2, 18]: 36.5 µM
IC50 [3]: 32.2 µM

COc1cc2ncnc(Nc3ccc(F)c(Cl)c3)c2cc1NC(=O)N/N=C/c1ccc(F)cc1
IC50 [1, 17]: 31.1 µM
IC50 [2, 18]: 36.5 µM
IC50 [3]: 26.6 µM
IC50 [4, 19]: 35.1 µM

COc1cc2ncnc(Nc3ccc(F)c(Cl)c3)c2cc1NC(=O)N/N=C/c1cccc(Br)c1
IC50 ([1]; hepg2): Not Active
IC50 ([2]; pc-3): Not Active
IC50 [3]: 28.1 µM
IC50 [4, 19]: 27.1 µM

COc1cc2ncnc(Nc3ccc(F)c(Cl)c3)c2cc1NC(=O)N/N=C/c1ccc(F)cc1Cl
IC50 [1, 17]: 29.2 µM
IC50 [2, 18]: 25.7 µM
IC50 [3]: 28.2 µM
IC50 ([4]; mcf7): Not Active

CCN(CC)c1ccc(/C=N/NC(=O)Nc2cc3c(Nc4ccc(F)c(Cl)c4)ncnc3cc2O[C@H]2CCOC2)c(O)c1
IC50 [1, 17]: 15.7 µM
IC50 [2, 18]: 4.59 µM
IC50 [3]: 15.7 µM
IC50 [4, 19]: 15.6 µM

COc1cc2ncnc(Nc3ccc(F)c(Cl)c3)c2cc1NC(=O)N/N=C/c1ccc(O)cc1
IC50 [1, 17]: 26.3 µM
IC50 [2, 18]: 16.6 µM
IC50 [3]: 7.61 µM
IC50 [4, 19]: 28.6 µM

O=C(N/N=C/c1ccc(O)cc1)Nc1cc2c(Nc3ccc(F)c(Cl)c3)ncnc2cc1O[C@H]1CCOC1
Activity [5]: 2.37%
viability at 0.5 µM [6]: 83.9%
IC50 [7]: 0.056 µM
Ratio IC50 [8]: 2.9
Activity [9]: 6.81%
Activity [10]: 6.94%
IC50 [1, 17]: 0.07 µM
IC50 [2, 18]: 4.89 µM
Activity [11]: 4.37%
Activity [12]: Dose-dependent effect
Activity [13]: 8.94%
IC50 [3]: 1.32 µM
Activity [14]: 8.81%
Ratio IC50 [15]: 19
IC50 [4, 19]: 0.91 µM
viability at 1 µM [16]: 77.9%

O=C(N/N=C/c1ccc([N+](=O)[O-])cc1)Nc1cc2c(Nc3ccc(F)c(Cl)c3)ncnc2cc1O[C@H]1CCOC1
IC50 [1, 17]: 35.3 µM
IC50 [2, 18]: 33.5 µM
IC50 [3]: 31.2 µM
IC50 ([4]; mcf7): Not Active

COc1cc2ncnc(Nc3ccc(F)c(Cl)c3)c2cc1NC(=O)N/N=C/c1cc(OC)c(OC)c(OC)c1
IC50 [1, 17]: 30.1 µM
IC50 [2, 18]: 36.5 µM
IC50 [3]: 32.1 µM
IC50 [4, 19]: 30.7 µM

O=C(N/N=C/c1cccc(Cl)c1Cl)Nc1cc2c(Nc3ccc(F)c(Cl)c3)ncnc2cc1O[C@H]1CCOC1
IC50 [1, 17]: 16.9 µM
IC50 [2, 18]: 27.4 µM
IC50 [3]: 25 µM
IC50 ([4]; mcf7): Not Active

COc1cc2ncnc(Nc3ccc(F)c(Cl)c3)c2cc1NC(=O)N/N=C/c1cc(C(C)(C)C)c(O)c(C(C)(C)C)c1
IC50 [1, 17]: 26.8 µM
IC50 [2, 18]: 28.7 µM
IC50 [3]: 37.1 µM
IC50 [4, 19]: 28.3 µM

COc1cc2ncnc(Nc3ccc(F)c(Cl)c3)c2cc1NC(=O)N/N=C/c1ccc([N+](=O)[O-])cc1
IC50 [1, 17]: 34.1 µM
IC50 [2, 18]: 32.4 µM
IC50 [3]: 35.1 µM
IC50 [4, 19]: 36.8 µM

CCN(CC)c1ccc(/C=N/NC(=O)Nc2cc3c(Nc4ccc(F)c(Cl)c4)ncnc3cc2OC)c(O)c1
IC50 [1, 17]: 29.3 µM
IC50 [2, 18]: 34.3 µM
IC50 [3]: 27.3 µM
IC50 [4, 19]: 27.3 µM

COc1cc2ncnc(Nc3ccc(F)c(Cl)c3)c2cc1NC(=O)N/N=C/c1ccc(O)c(Br)c1
IC50 [1, 17]: 23.8 µM
IC50 [2, 18]: 15.3 µM
IC50 [3]: 28.6 µM
IC50 ([4]; mcf7): Not Active

COc1cc2ncnc(Nc3ccc(F)c(Cl)c3)c2cc1NC(=O)N/N=C/c1ccc(O)cc1O
IC50 [1, 17]: 32.1 µM
IC50 [2, 18]: 29.5 µM
IC50 [3]: 31.4 µM
IC50 [4, 19]: 36.2 µM

O=C(N/N=C/c1ccc(F)cc1Cl)Nc1cc2c(Nc3ccc(F)c(Cl)c3)ncnc2cc1O[C@H]1CCOC1
IC50 [1, 17]: 26.1 µM
IC50 [2, 18]: 28.4 µM
IC50 [3]: 27.2 µM
IC50 [4, 19]: 32.2 µM

COc1cc(/C=N/NC(=O)Nc2cc3c(Nc4ccc(F)c(Cl)c4)ncnc3cc2O[C@H]2CCOC2)cc(OC)c1OC
IC50 [1, 17]: 31.2 µM
IC50 [2, 18]: 29.6 µM
IC50 [3]: 26.4 µM
IC50 [4, 19]: 26.5 µM

CN(C)C/C=C/C(=O)Nc1cc2c(Nc3ccc(F)c(Cl)c3)ncnc2cc1O[C@H]1CCOC1 [AFATINIB]
IC50 [2, 18]: 3.96 µM
IC50 [3]: 1.4 µM

O=C(N/N=C/c1cccc(Br)c1)Nc1cc2c(Nc3ccc(F)c(Cl)c3)ncnc2cc1O[C@H]1CCOC1
IC50 [1, 17]: 32.3 µM
IC50 [2, 18]: 15.5 µM
IC50 [3]: 10.7 µM
IC50 [4, 19]: 12.4 µM

O=C(N/N=C/c1cc(Br)c(O)c(Br)c1)Nc1cc2c(Nc3ccc(F)c(Cl)c3)ncnc2cc1O[C@H]1CCOC1
IC50 [1, 17]: 2.74 µM
IC50 [2, 18]: 6.16 µM
IC50 [3]: 8.91 µM
IC50 [4, 19]: 5.91 µM

COc1cc2ncnc(Nc3ccc(F)c(Cl)c3)c2cc1NC(=O)N/N=C/c1ccc(OC)c(OC)c1OC
IC50 [1, 17]: 31.2 µM
IC50 [2, 18]: 29.3 µM
IC50 [3]: 32.8 µM
IC50 ([4]; mcf7): Not Active

COc1ccc(/C=N/NC(=O)Nc2cc3c(Nc4ccc(F)c(Cl)c4)ncnc3cc2O[C@H]2CCOC2)cc1
IC50 [1, 17]: 28.8 µM
IC50 [2, 18]: 34.1 µM
IC50 [3]: 33.1 µM
IC50 [4, 19]: 27.3 µM

COc1cc2ncnc(Nc3ccc(F)c(Cl)c3)c2cc1NC(=O)N/N=C/c1cc(Br)c(O)c(Br)c1
IC50 [1, 17]: 36.8 µM
IC50 [2, 18]: 41.5 µM
IC50 [3]: 34.6 µM
IC50 [4, 19]: 30.2 µM

O=C(N/N=C/c1ccc(O)c(Br)c1)Nc1cc2c(Nc3ccc(F)c(Cl)c3)ncnc2cc1O[C@H]1CCOC1
IC50 [1, 17]: 0.66 µM
IC50 [2, 18]: 5.23 µM
IC50 [3]: 4.31 µM
IC50 [4, 19]: 2.69 µM

COc1cc2ncnc(Nc3ccc(F)c(Cl)c3)c2cc1NC(=O)N/N=C/c1cccc(Cl)c1Cl
IC50 [1, 17]: 26.1 µM
IC50 [2, 18]: 24.4 µM
IC50 [3]: 35.3 µM
IC50 [4, 19]: 28.7 µM

O=C(N/N=C/c1ccc(F)cc1)Nc1cc2c(Nc3ccc(F)c(Cl)c3)ncnc2cc1O[C@H]1CCOC1
IC50 ([1]; hepg2): Not Active
IC50 ([2]; pc-3): Not Active
IC50 [3]: 35.1 µM
IC50 [4, 19]: 28.2 µM

COc1ccc(/C=N/NC(=O)Nc2cc3c(Nc4ccc(F)c(Cl)c4)ncnc3cc2OC)cc1
IC50 [1, 17]: 21.3 µM
IC50 [2, 18]: 16.5 µM
IC50 [3]: 28.1 µM
IC50 [4, 19]: 8.14 µM
